Results as given in patent US20250230147A1, “LACTAMS AS CBL-B INHIBITORS” (Genentech, Inc., priority 2021, published 2025).
Structures can show the parent of a compound that is named as a salt.

What was measured:
Cbl-b = Cbl-b (Homo sapiens (Human), UniProt Q13191); assay: Cbl-b LCK Ub TR-FRET assay (Cbl-b Lck HTRF); type: biochemical
Method in brief: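 Biotin-Cbl-b preincubated with compound (10-point 3-fold series) 60 min, then His-LCK with 1 mM ATP (2× mixture) added for 90 min at room temperature. Ubiquitination detected by TR-FRET using HA-ubiquitin/UBE2D2 adduct, anti-HA-D2 and streptavidin-Eu; IC50 normalised to no-LCK and DMSO controls.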

c-Cbl = c-Cbl (Homo sapiens (Human), UniProt P22681); assay: C-Cbl LCK Ub TR-FRET assay (c-cbl Lck HTRF); type: biochemical; settings: for (fold-selectivity): C-cbl Lck HTRF IC50 relative to Cbl-b Lck HTRF IC50
Method in brief: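 Detection reagents added, brief spin, 20 min RT. IC50 fit normalized to no-LCK (low) and DMSO (high) controls.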

Cbl-b, sequence (Q13191 40-426): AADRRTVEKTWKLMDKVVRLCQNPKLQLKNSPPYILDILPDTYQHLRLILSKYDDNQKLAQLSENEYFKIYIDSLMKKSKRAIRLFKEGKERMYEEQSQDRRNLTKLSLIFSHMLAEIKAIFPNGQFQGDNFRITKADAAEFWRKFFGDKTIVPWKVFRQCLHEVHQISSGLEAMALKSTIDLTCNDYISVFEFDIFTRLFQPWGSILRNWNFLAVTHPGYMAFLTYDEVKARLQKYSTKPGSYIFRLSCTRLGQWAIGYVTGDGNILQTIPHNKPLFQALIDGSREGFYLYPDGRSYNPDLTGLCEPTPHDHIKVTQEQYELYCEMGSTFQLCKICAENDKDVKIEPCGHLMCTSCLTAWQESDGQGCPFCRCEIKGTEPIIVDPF
c-Cbl, sequence (P22681 47-435): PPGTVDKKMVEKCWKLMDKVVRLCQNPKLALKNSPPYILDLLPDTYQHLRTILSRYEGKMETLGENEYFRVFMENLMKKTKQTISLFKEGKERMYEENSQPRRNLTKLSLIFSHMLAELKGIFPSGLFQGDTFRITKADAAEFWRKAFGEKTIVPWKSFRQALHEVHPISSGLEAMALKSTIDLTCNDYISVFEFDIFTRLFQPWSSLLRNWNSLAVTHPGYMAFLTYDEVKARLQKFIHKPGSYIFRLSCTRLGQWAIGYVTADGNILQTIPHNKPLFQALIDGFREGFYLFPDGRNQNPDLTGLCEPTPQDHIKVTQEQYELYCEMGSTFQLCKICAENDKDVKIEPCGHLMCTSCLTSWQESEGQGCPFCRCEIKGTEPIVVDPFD

Row | IC50 (Cbl-b) | IC50 (c-Cbl) | (fold-selectivity) (c-Cbl) | SMILES
1 | 8 nM | 5.3 nM | (0.71x) | CCOc1cc(C2(Cc3nncn3C)CCC2)cc(N2Cc3c(cc(CNC4(C)CCC4)cc3C(F)(F)F)C2=O)n1 [Compound 285, 2-(6-ethoxy-4-(1-((4-methyl-4H-1,2,4-triazol-3-yl)methyl)cyclobutyl)pyridin-2-yl)-6-(((1-methylcyclobutyl)amino)methyl)-4-(trifluoromethyl)isoindolin-1-one]
2 | 6.8 nM | 4.9 nM | (0.73x) | CCSc1cc(C2(Cc3nncn3C)CCC2)cc(N2Cc3c(cc(CNC4(C)CCC4)cc3C(F)(F)F)C2=O)n1 [Compound 286, 2-(6-(ethylthio)-4-(1-((4-methyl-4H-1,2,4-triazol-3-yl)methyl)cyclobutyl)pyridin-2-yl)-6-(((1-methylcyclobutyl)amino)methyl)-4-(trifluoromethyl)isoindolin-1-one]
3 | 32 nM | 43 nM | (1.4x) | Cn1cnnc1C(F)(F)C1(c2cccc(N3Cc4c(cc(CNC5(C)CCC5)cc4C(F)(F)F)C3=O)c2)COC1 [Compound 287, 2-(3-(3-(difluoro(4-methyl-4H-1,2,4-triazol-3-yl)methyl)oxetan-3-yl)phenyl)-6-(((1-methylcyclobutyl)amino)methyl)-4-(trifluoromethyl)isoindolin-1-one]
4 | 10 nM | 5.4 nM | (0.54x) | CCNc1cc(C2(Cc3nncn3C)COC2)cc(N2Cc3c(cc(CNC4(C)CCC4)cc3C(F)(F)F)C2=O)n1 [Compound 290, 2-(6-(ethylamino)-4-(3-((4-methyl-4H-1,2,4-triazol-3-yl)methyl)oxetan-3-yl)pyridin-2-yl)-6-(((1-methylcyclobutyl)amino)methyl)-4-(trifluoromethyl)isoindolin-1-one]
5 | 12 nM | 8.2 nM | (0.69x) | CCNc1cc(C2(Cc3nncn3C)COC2)cc(N2Cc3c(cc(CN4CCN(C)C[C@@H]4C(C)C)cc3C(F)(F)F)C2=O)n1 [Compound 291, (S)-2-(6-(ethylamino)-4-(3-((4-methyl-4H-1,2,4-triazol-3-yl)methyl)oxetan-3-yl)pyridin-2-yl)-6-((2-isopropyl-4-methylpiperazin-1-yl)methyl)-4-(trifluoromethyl)isoindolin-1-one]
6 | 3400 nM | 5100 nM | (1.5x) | Cn1cnnc1CC1(c2cc(CC3CCCC3)nc(N3Cc4c(cccc4C(F)(F)F)C3=O)c2)COC1 [Compound 292, 2-(6-(cyclopentylmethyl)-4-(3-((4-methyl-4H-1,2,4-triazol-3-yl)methyl)oxetan-3-yl)pyridin-2-yl)-4-(trifluoromethyl)isoindolin-1-one]
7 | 5.5 nM | 7.8 nM | (1.4x) | CC(C)[C@H]1CN(C)CCN1Cc1cc2c(c(C(F)(F)F)c1)CN(c1cc(C3(Cc4nncn4C)COC3)cc(OC3CCCC3)n1)C2=O [Compound 293, (S)-2-(6-(cyclopentyloxy)-4-(3-((4-methyl-4H-1,2,4-triazol-3-yl)methyl)oxetan-3-yl)pyridin-2-yl)-6-((2-isopropyl-4-methylpiperazin-1-yl)methyl)-4-(trifluoromethyl)isoindolin-1-one]
8 | 9.5 nM | 16 nM | (1.7x) | Cn1cnnc1CC1(c2cc(OC3CCCC3)nc(N3Cc4c(cc(CNC5(C)CCC5)cc4C(F)(F)F)C3=O)c2)COC1 [Compound 294, 2-(6-(cyclopentyloxy)-4-(3-((4-methyl-4H-1,2,4-triazol-3-yl)methyl)oxetan-3-yl)pyridin-2-yl)-6-(((1-methylcyclobutyl)amino)methyl)-4-(trifluoromethyl)isoindolin-1-one]
9 | 44 nM | 33 nM | (0.75x) | Cn1cnnc1CC1(c2cc(NC3CCCC3)nc(N3Cc4c(cc(CNC5(C)CCC5)cc4C(F)(F)F)C3=O)c2)CCC1 [Compound 295, 2-(6-(cyclopentylamino)-4-(1-((4-methyl-4H-1,2,4-triazol-3-yl)methyl)cyclobutyl)pyridin-2-yl)-6-(((1-methylcyclobutyl)amino)methyl)-4-(trifluoromethyl)isoindolin-1-one]
10 | 440 nM | 2500 nM | (5.7x) | Cn1cnnc1CC1(c2cc(NC3CCCC3)nc(N3Cc4c(cccc4C(F)(F)F)C3=O)c2)CCC1 [Compound 296, 2-(6-(cyclopentylamino)-4-(1-((4-methyl-4H-1,2,4-triazol-3-yl)methyl)cyclobutyl)pyridin-2-yl)-4-(trifluoromethyl)isoindolin-1-one]
11 | 9.9 nM | 13 nM | (1.3x) | Cn1cnnc1CC1(c2cc(NC3CCCC3)nc(N3Cc4c(cc(CNC5(C)CCC5)cc4C(F)(F)F)C3=O)c2)COC1 [Compound 298, 2-(6-(cyclopentylamino)-4-(3-((4-methyl-4H-1,2,4-triazol-3-yl)methyl)oxetan-3-yl)pyridin-2-yl)-6-(((1-methylcyclobutyl)amino)methyl)-4-(trifluoromethyl)isoindolin-1-one]
12 | 11 nM | 5.4 nM | (0.50x) | CC(C)[C@H]1CN(C)CCN1Cc1cc2c(c(C(F)(F)F)c1)CN(c1cc(C3(Cc4nncn4C)CCC3)cc(C#N)n1)C2=O [Compound 299, (S)-6-(6-((2-isopropyl-4-methylpiperazin-1-yl)methyl)-1-oxo-4-(trifluoromethyl)isoindolin-2-yl)-4-(1-((4-methyl-4H-1,2,4-triazol-3-yl)methyl)cyclobutyl)picolinonitrile]
13 | 5.6 nM | 4.7 nM | (0.83x) | Cn1cnnc1CC1(c2cc(C3CC3)nc(N3Cc4c(cc(CNC5(C)CCC5)cc4C(F)(F)F)C3=O)c2)COC1 [Compound 300, 2-(6-cyclopropyl-4-(3-((4-methyl-4H-1,2,4-triazol-3-yl)methyl)oxetan-3-yl)pyridin-2-yl)-6-(((1-methylcyclobutyl)amino)methyl)-4-(trifluoromethyl)isoindolin-1-one]
14 | 12 nM | 10 nM | (0.86x) | Cn1cnnc1CC1(c2cccc(N3Cc4c(cc(CNC5(C)CCC5)cc4C(F)(F)F)C3=O)c2)COC1 [Compound 301, 2-(3-(3-((4-methyl-4H-1,2,4-triazol-3-yl)methyl)oxetan-3-yl)phenyl)-6-(((1-methylcyclobutyl)amino)methyl)-4-(trifluoromethyl)isoindolin-1-one]
15 | 590 nM | 660 nM | (1.1x) | COCCN1CCC(Nc2cc(C3(Cc4nncn4C)CCC3)cc(N3Cc4c(cc(CNC5(C)CCC5)cc4C(F)(F)F)C3=O)n2)CC1 [Compound 302, 2-(6-((1-(2-methoxyethyl)piperidin-4-yl)amino)-4-(1-((4-methyl-4H-1,2,4-triazol-3-yl)methyl)cyclobutyl)pyridin-2-yl)-6-(((1-methylcyclobutyl)amino)methyl)-4-(trifluoromethyl)isoindolin-1-one]
16 | 310 nM | 190 nM | (0.59x) | Cn1cnnc1CC1(c2cc(NCCCN3CCOCC3)nc(N3Cc4c(cc(CNC5(C)CCC5)cc4C(F)(F)F)C3=O)c2)CCC1 [Compound 303, 2-(4-(1-((4-methyl-4H-1,2,4-triazol-3-yl)methyl)cyclobutyl)-6-((3-morpholinopropyl)amino)pyridin-2-yl)-6-(((1-methylcyclobutyl)amino)methyl)-4-(trifluoromethyl)isoindolin-1-one]
17 | 11 nM | 7.9 nM | (0.73x) | CCOc1cc(C2(Cc3nncn3C)COC2)cc(N2Cc3c(cc(CNC4(C)CCC4)cc3C(F)(F)F)C2=O)n1 [Compound 304, 2-(6-ethoxy-4-(3-((4-methyl-4H-1,2,4-triazol-3-yl)methyl)oxetan-3-yl)pyridin-2-yl)-6-(((1-methylcyclobutyl)amino)methyl)-4-(trifluoromethyl)isoindolin-1-one]
18 | 39 nM | 49 nM | (1.3x) | Cc1cnnn1CC1(c2cccc(N3Cc4c(cc(CNC5(C)CCC5)cc4C(F)F)C3=O)c2)COC1 [Compound 305, 4-(difluoromethyl)-2-(3-(3-((5-methyl-1H-1,2,3-triazol-1-yl)methyl)oxetan-3-yl)phenyl)-6-(((1-methylcyclobutyl)amino)methyl) isoindolin-1-one]
19 | 76 nM | 89 nM | (1.2x) | Cn1cnnc1CC1(c2cc(N[C@H]3CC[C@@H](N)CC3)nc(N3Cc4c(cc(CNC5(C)CCC5)cc4C(F)(F)F)C3=O)c2)CCC1 [Compound 306, 2-(6-(((1s,4s)-4-aminocyclohexyl)amino)-4-(1-((4-methyl-4H-1,2,4-triazol-3-yl)methyl)cyclobutyl)pyridin-2-yl)-6-(((1-methylcyclobutyl)amino)methyl)-4-(trifluoromethyl)isoindolin-1-one]

Row | SMILES | IC50 (Cbl-b) | IC50 (c-Cbl) | (fold-selectivity) (c-Cbl)
20 | CC(C)[C@H]1CN(C)CCN1Cc1cc2c(c(C(F)(F)F)c1)CN(c1cc(C3(Cc4nncn4C)COC3)cc(NC3CCCC3)n1)C2=O [Compound 297, (S)-2-(6-(cyclopentylamino)-4-(3-((4-methyl-4H-1,2,4-triazol-3-yl)methyl)oxetan-3-yl)pyridin-2-yl)-6-((2-isopropyl-4-methylpiperazin-1-yl)methyl)-4-(trifluoromethyl)isoindolin-1-one formate] | 9.1 nM | 8 nM | 
21 | CCNC(=O)CNc1cc(C2(Cc3nncn3C)CCC2)cc(N2Cc3c(cc(CNC4(C)CCC4)cc3C(F)(F)F)C2=O)n1 [Compound 307, N-ethyl-2-((4-(1-((4-methyl-4H-1,2,4-triazol-3-yl)methyl)cyclobutyl)-6-(6-(((1-methylcyclobutyl)amino)methyl)-1-oxo-4-(trifluoromethyl)isoindolin-2-yl)pyridin-2-yl)amino)acetamide formate] | 180 nM | 310 nM | 
